In PMC5084075 (ACS Central Science, 2016):
Where two headings read alike, the source gives them in different places.

Experiments:
PfDHODH [1] = biological target: T1, PfDHODH (Plasmodium falciparum, UniProt Q08210); assay: biochemical; set-up: PfDHODH enzyme inhibition IC50; settings: read-out: >50
T1 sequence (Q08210 1-569): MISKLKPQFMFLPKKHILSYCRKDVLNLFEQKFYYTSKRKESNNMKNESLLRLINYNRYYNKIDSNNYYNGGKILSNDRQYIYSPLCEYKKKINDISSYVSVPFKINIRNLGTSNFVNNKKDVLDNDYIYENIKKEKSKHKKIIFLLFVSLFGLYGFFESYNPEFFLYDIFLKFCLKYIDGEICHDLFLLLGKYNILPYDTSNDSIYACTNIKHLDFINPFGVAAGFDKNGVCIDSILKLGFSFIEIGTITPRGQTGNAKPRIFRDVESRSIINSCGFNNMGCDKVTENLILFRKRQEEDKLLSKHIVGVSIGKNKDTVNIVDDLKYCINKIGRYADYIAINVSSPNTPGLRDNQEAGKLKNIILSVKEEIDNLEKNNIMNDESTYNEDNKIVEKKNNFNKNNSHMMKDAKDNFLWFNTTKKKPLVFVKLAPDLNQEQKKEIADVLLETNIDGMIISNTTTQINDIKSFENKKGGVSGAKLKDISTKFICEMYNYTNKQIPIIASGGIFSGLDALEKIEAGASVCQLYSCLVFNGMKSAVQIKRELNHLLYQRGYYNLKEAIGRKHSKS

in vitro [2] = assay: in vitro; set-up: cytotoxicity counter-screen on HEK293 cells; settings: human, hek293 cells; read-out: HEK 293 / IC50nM
Protocol: (§1) To confirm the promise of the two starting points OSM-S-5 and -6, they were evaluated against 3D7 (drug-sensitive) and K1 (chloroquine resistant) strains of Plasmodium falciparum in a whole cell assay and against HEK-293 cells as a cytotoxicity marker (Table SB1, Biological Protocols; tables with the prefix “SB” may be found in the Supporting Information). Biological data may be browsed in a static data set taken as a snapshot for this paper (Data Sets S1 (Excel), S2 (SDF)), online in a database constructed through periodic batch uploads,[68] or in a “living database” to which may be added future data;[69] the latter may be visualized in a web browser[70] using an open source system that was recently deployed in the Wikipedia Chemical Structure Explorer,[71] or the data may be downloaded and visualized offline with proprietary (Figure S4)[72] or open source (Figure S5)[73] tools). The evaluation was performed in three different institutions using different assays and widely employed controls; controls are important to assess reproducibility and interassay variability[74] but also to minimize possible bias in evaluating compounds where there are pre-existing data from other researchers already in the public domain (Figure S6).[75]

[3] = test system: T2, Plasmodium falciparum 3D7; assay: microbe, parasite or virus in culture; set-up: species or system P. falciparum blood stage culture; whole-cell asexual blood stage P. falciparum growth inhibition; settings: Avery assay, read-out: 3D7 / IC50nM
T2 construct: 3D7
Protocol: as §1

[4] = test system: T3, Plasmodium falciparum K1 (chloroquine resistant); assay: microbe, parasite or virus in culture; set-up: species or system P. falciparum blood stage culture; whole-cell asexual blood stage P. falciparum growth inhibition
T3 construct: K1
Protocol: as §1

[5] = test system: Plasmodium falciparum late stage (IV-V) gametocytes; assay: microbe, parasite or virus in culture; set-up: species or system P. falciparum gametocytes; late stage (IV-V) gametocyte viability assay; settings: 96 h, read-out: Late Stage Gametocyte (Avery)
Protocol: There are relatively few compounds effective against the gametocyte stage of the parasite,[12],[13] though such compounds are important in the prevention of disease transmission. Four compounds found to be active in the asexual assay were evaluated against late stage (IV–V) gametocytes. […] The discrepancy in the data arising from these two gametocyte assays may arise from the slightly different cell biology assayed (stage IV/V gametocytes vs stage V mature gametocytes) or most likely is a function of the relative compound exposure times (96 h vs 24 h).

PfDHODH [6] = biological target: T1, PfDHODH; assay: biochemical; set-up: PfDHODH enzyme inhibition IC50; settings: read-out: DHODH
Description: (§2) The potency of the near neighbor set led to an in silico target prediction study being performed on OSM-S-39 (Text S11). The method employed a naive Bayes statistical model identifying molecular structural features of small molecules with protein targets, using the ChEMBL database. Similar statistical approaches based on known activities of compounds have been successfully applied to identify targets of antitubercular compounds.[112]−[114] A total of 1,287 proteins were included for which at least 50 active compounds were known with activities <10 μM, with the other compounds in the database comprising the inactives. After the OSM compounds were scored against each target, the scores obtained were standardized by comparison with scores obtained through comparison with a random set of >10K compounds. The prediction list was culled for proteins relevant to malaria (3D7 proteome), and the analysis gave as the most likely candidate targets, in order of significance, carboxy-terminal domain RNA polymerase II polypeptide A small phosphatase 1 (Q8I3U9), dihydroorotate dehydrogenase (DHODH, Q08210), SUMO-activating enzyme subunit 2 (Q8I553) and 1 (Q8IHS2), and cyclin-dependent kinase 1 (P61075). […] A line of inquiry remaining open is the equivalent assays against the other targets identified in the in silico prediction.

[7] = biological target: T4, hERG (human ether-à-go-go-related gene ion channel) (Homo sapiens, UniProt Q12809); assay: cell-based; set-up: hERG channel inhibition counterscreen; settings: read-out: hERG pIC50 (converted)
T4 construct: gene KCNH2
Description: There is increasing awareness of the importance for drug candidates of inhibition of hERG (the human ether-à-go-go-related gene ion channel), which is sensitive to blockade by many drug-like structures. Such blockage has led to a number of prominent postmarketing withdrawals.[103] Regulators are sensitive to any hERG activity, and a hERG counterscreen is often now run early in hit characterization and series prioritization.

HEK293 = assay: cells; set-up: cytotoxicity counter-screen on HEK293 cells; settings: Homo sapiens, cytotoxicity
Protocol: as §1

in vitro [8] = assay: in vitro; set-up: microsomal stability with NADPH, LC-MS, half-life and CLint; settings: human, liver microsomes, HLM; for microsomal CLint: read-out: CLint HLM (Monash); for half-life: read-out: t1/2 HLM (Monash)
Protocol: (§3) The two original GSK hits (OSM-S-5 and -6) and six NN compounds were evaluated for their kinetic solubility in phosphate buffer and their metabolic stability in human liver microsomes (Table SB5, Data Sets S20 and S21).

in vitro [9] = assay: in vitro; set-up: metabolic stability in human liver microsomes, LC-MS, NADPH, 0.4 mg/mL protein; settings: liver microsomes, human liver microsomes; for microsomal CLint: read-out: CLint HLM (Monash); for half-life: read-out: t1/2 HLM (Monash)
Protocol: as §3

[10] = test system: T5, Plasmodium falciparum Pfal (K1); assay: microbe, parasite or virus in culture; set-up: species or system erythrocytes; P. falciparum asexual blood-stage whole-cell growth inhibition, IC50; settings: K1, Erythrocyte, lab named in column head, read-out: Pfal (K1) IC50 (Guy)
T5 construct: K1
Protocol: as §1

[11] = test system: T6, Plasmodium falciparum Pfal (3D7); assay: microbe, parasite or virus in culture; set-up: species or system erythrocytes; P. falciparum asexual blood-stage whole-cell growth inhibition, IC50; settings: 3D7, Erythrocyte, lab named in column head, read-out: Pfal IC50 (Guy)
T6 construct: 3D7
Protocol: as §1

[12] = test system: Plasmodium falciparum Pfal (strain not named in column head); assay: microbe, parasite or virus in culture; set-up: species or system P. falciparum blood stage culture; whole-cell asexual blood stage P. falciparum growth inhibition; settings: Guy assay
Protocol: as §1

[13] = test system: Plasmodium falciparum mature stage V gametocytes (DGFA); assay: microbe, parasite or virus in culture; set-up: dual gamete formation assay, inhibition of male and female gamete formation; settings: 24 h
Protocol: The discrepancy in the data arising from these two gametocyte assays may arise from the slightly different cell biology assayed (stage IV/V gametocytes vs stage V mature gametocytes) or most likely is a function of the relative compound exposure times (96 h vs 24 h).

in vitro [14] = assay: in vitro; set-up: HepG2 cytotoxicity beside the liver stage assay; settings: human, hepg2 cells
Description: (§4) Of particular note is the striking potency of the nontoxic compound OSM-S-38, which may at this level provide protection from malaria to people who have been treated with the compound after an infectious bite.

PfDHODH [15] = biological target: T1, PfDHODH; assay: biochemical; set-up: PfDHODH enzyme inhibition assay, IC50; settings: read-out: DHODH
Description: as §2

[16] = test system: Plasmodium berghei Pb Liver Stage; assay: microbe, parasite or virus in culture; set-up: liver stage assay, sporozoites in liver cells; settings: HepG2
Description: as §4

in vitro [17] = assay: in vitro; set-up: metabolic stability in mouse liver microsomes, LC-MS, NADPH, 0.4 mg/mL protein; settings: liver microsomes, mouse liver microsomes
Protocol: as §3

[18] = test system: Plasmodium berghei Pb Liver Stage; assay: microbe, parasite or virus in culture; set-up: P. berghei sporozoite liver stage development inhibition, IC50; settings: HepG2
Description: as §4

[19] = Avery assay, read-out: K1 / IC50nM
[20] = Guy assay, read-out: Pfal (K1) IC50 (Guy)

T4 sequence (Q12809 whole entry): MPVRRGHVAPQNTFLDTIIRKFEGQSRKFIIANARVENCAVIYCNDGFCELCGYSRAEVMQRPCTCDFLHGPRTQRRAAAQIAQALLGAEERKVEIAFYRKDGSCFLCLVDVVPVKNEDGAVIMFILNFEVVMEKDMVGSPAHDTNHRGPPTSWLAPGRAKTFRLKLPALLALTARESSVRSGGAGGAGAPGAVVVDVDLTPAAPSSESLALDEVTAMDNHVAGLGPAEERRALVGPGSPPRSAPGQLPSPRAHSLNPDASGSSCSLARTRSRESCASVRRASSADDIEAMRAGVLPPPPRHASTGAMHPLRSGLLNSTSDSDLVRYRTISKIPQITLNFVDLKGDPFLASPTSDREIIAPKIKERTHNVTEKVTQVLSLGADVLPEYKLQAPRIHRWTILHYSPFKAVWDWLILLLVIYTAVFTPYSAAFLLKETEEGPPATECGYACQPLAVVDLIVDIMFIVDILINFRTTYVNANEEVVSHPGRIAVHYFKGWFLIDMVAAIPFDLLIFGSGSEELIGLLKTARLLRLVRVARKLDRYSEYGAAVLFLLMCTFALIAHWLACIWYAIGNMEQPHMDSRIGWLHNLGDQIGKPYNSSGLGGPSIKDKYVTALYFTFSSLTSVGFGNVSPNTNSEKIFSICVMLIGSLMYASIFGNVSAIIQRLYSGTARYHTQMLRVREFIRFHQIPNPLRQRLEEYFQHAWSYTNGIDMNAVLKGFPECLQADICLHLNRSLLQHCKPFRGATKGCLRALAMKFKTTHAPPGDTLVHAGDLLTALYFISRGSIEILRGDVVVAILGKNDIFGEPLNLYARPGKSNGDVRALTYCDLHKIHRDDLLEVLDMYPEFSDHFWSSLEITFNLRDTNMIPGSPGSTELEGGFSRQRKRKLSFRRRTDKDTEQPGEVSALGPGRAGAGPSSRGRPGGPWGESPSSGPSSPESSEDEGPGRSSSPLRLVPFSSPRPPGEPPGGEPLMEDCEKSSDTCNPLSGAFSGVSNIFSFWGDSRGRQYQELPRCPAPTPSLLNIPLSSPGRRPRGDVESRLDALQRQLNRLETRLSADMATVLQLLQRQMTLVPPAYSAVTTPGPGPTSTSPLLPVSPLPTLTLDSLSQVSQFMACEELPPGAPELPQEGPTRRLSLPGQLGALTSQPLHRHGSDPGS

CC(C)=CCC1=C(O)C(=O)c2ccccc2C1=O [Lapachol]
IC50 (PfDHODH [1]): > 100000 nM

CN(Cc1cnc2nc(N)nc(N)c2n1)c1ccc(C(=O)N[C@@H](CCC(=O)O)C(=O)O)cc1 [Methotrexate]
CC50 (in vitro [2]): 11.8 nM
IC50 [3]: 25.8 nM
IC50 [4, 19]: 25 nM

CC(=O)N(C1=NC(=O)/C(=C/c2cc(C)n(-c3ccc(F)cc3)c2C)S1)c1ccccc1 [OSM-S-9]
IC50 [5]: 28 nM
IC50 (PfDHODH [6]): > 50000 nM

Cc1cc(/C=C2\SC(=Nc3ccccc3)NC2=O)c(C)n1-c1ccccc1 [OSM-S-35]
IC50 [7]: > 31600 nM
inhibition at 40 µM (HEK293): 57%
IC50 (PfDHODH [6]): > 50000 nM

Cc1ccc(-n2c(C)cc(/C=C3\SC(=Nc4ccccc4)NC3=O)c2C)cc1 [OSM-S-37]
microsomal CLint (in vitro [8]): 7 µL/min/mg
half-life (in vitro [8]): 4.08 h
microsomal CLint (in vitro [9]): 7 µL/min/mg
half-life (in vitro [9]): 4.08 h
IC50 [10]: 176 nM
IC50 [11]: 161 nM
IC50 (PfDHODH [6]): > 50000 nM
IC50 [12]: 161 nM
IC50 [4, 20]: 176 nM

Cc1cc(/C=C2\S/C(=N\c3ccccc3)NC2=O)c(C)n1-c1ccc(C(F)(F)F)cc1 [OSM-S-38]
inhibition at 1 µM ([13]; female gametocytes): 20.5%
inhibition at 1 µM ([13]; male gametocytes): 26.5%
CC50 (in vitro [14]): > 50000 nM
IC50 [5]: 4 nM
IC50 (PfDHODH [6]): > 50000 nM

Cc1cc(/C=C2\S/C(=N\c3ccccc3)NC2=O)c(C)n1-c1cc(C(F)(F)F)cc(C(F)(F)F)c1 [OSM-S-39]
inhibition at 1 µM ([13]; female gametocytes): 31.3%
inhibition at 1 µM ([13]; male gametocytes): 36.1%
IC50 [5]: 2.6 nM
IC50 (PfDHODH [6]): > 50000 nM

Cc1cc(/C=C2\SC(=Nc3ccccc3)N(CC#N)C2=O)c(C)n1-c1ccc(C(F)(F)F)cc1 [OSM-S-42]
IC50 (PfDHODH [15]): > 50000 nM

Cc1cc(/C=C2\SC(=Nc3ccccc3)N(c3ccccc3)C2=O)c(C)n1-c1ccc(C(F)(F)F)cc1 [OSM-S-52]
IC50 (PfDHODH [15]): > 50000 nM

Cc1cc(/C=C2\SC(=Nc3ccccc3)N(C3CCCC3)C2=O)c(C)n1-c1ccc(C(F)(F)F)cc1 [OSM-S-54]
IC50 (PfDHODH [15]): > 50000 nM

COc1ccc(-n2c(C)cc(/C=C3\SC(=Nc4ccccc4)NC3=O)c2C)cc1 [OSM-S-111]
IC50 [16]: 345 nM
microsomal CLint (in vitro [17]; read-out: 0.4 / CLint, in vitro / (mL/min/mg protein)): 0.0371 mL/min/mg
half-life (in vitro [17]; read-out: Protein Conc. (mg/mL): / Degradation half-life /): 0.777 h
microsomal CLint (in vitro [8]): 8 µL/min/mg
half-life (in vitro [8]): 3.45 h
inhibition at 1 µM ([13]; male gametocytes): 21.1%
CC50 (in vitro [14]): 4390 nM
IC50 [18]: 345 nM
microsomal CLint (in vitro [9]): 8 µL/min/mg
half-life (in vitro [9]): 3.45 h
IC50 [10]: 204 nM
IC50 [11]: 147 nM
IC50 [5]: 686 nM
inhibition at 40 µM (HEK293): 32%
IC50 [12]: 147 nM
IC50 [4, 20]: 204 nM

CCc1nc(N)nc(N)c1-c1ccc(Cl)cc1 [Pyrimethamine]
CC50 (in vitro [2]): 13900 nM
IC50 [3]: 11 nM
IC50 [4, 19]: 11900 nM

COc1ccc2nc3cc(Cl)ccc3c(Nc3cc(CN4CCCC4)c(O)c(CN4CCCC4)c3)c2n1 [Pyronaridine]
CC50 (in vitro [2]): 7700 nM
IC50 [3]: 15.2 nM
IC50 [4, 19]: 21.3 nM

COc1ccc(-n2ccnc2SCC(=O)Nc2cc(C(F)(F)F)ccc2Cl)c(OC)c1 [TCMDC-123822]
IC50 (PfDHODH [1]): 48.2 nM
